In US20090028925A1, “Novel Phosphinic Acid-Containing Thyromimetics” (priority 2005, published 2009):

Assays:
[1] = Cardiovascular activity in the Sprague Dawley rat (HR, LV dP/dt, aortic pressure, heart weight); type: in vivo; settings: SD rats, 1 mg/kg p.o., 7 days
Excerpt: Method: […] The control group (n=6) was given vehicle only. […] On the 7th day after the start of dosing, animals were anesthetized with Isofluorane and the left ventricle cannulated with a high fidelity catheter tip transducer via the right carotid artery. Left ventricular pressure, its first derivative (LVdP/dt), lead I ECG, and heart rate (HR) triggered off the ECG waveform, were digitally recorded. LV dP/dt is a well accepted measure of ionotropic state. Systolic and diastolic aortic pressures were measured by retracting the catheter into the proximal aorta.

[2] = cholesterol-fed rat; cited from earlier work
serum cholesterol = experiment: Subacute study in cholesterol fed rats, PO: serum cholesterol; type: in vivo; settings: PO once a day for seven days
Protocol: (§1) Methods: […] Compound 13-1-cis and Compound 18 were administered PO once a day for seven days. Serum TSH is measured using an enzyme immunoassay (EIA) kit designed for rat TSH (Amersham Pharmacia Biotech, Arlington Heights, Ill.). Expression levels of liver genes (e.g., the LDL-receptor, apoB, cpt-1, spot14 and apoAI) and heart genes ([…]2, HCN2, Kv1.5, MHCα, MHCβ, Alpha1c) are quantified by Northern blot analysis or by RT-PCR. For Northern analyses, RNA is isolated from liver tissue by a guanidinium thiocyanate method, and total RNA is obtained using an RNeasy column (Quiagen). mRNA is separated on a 1% agarose gel and transferred to a nylon membrane. Oligonucleotides specific for the complementary gene sequences are used to make ^32P-labeled probes (Multiprime DNA labeling systems, Amersham Pharmacia Biotech). Following hybridization of the probes to the nylon membranes, radioactivity is assessed on a blue film (Eastman Kodak Co), and the resulting image quantified using the appropriate software. RT-PCR is performed using an iCycler instrument (Biorad) using appropriate primers by means of standard methodology [[…] et al. (2000) Life Sciences 66: 1683-94]. GPDH activity in liver and heart are measured as described in Example B. […] Alternatively, expression levels of the corresponding genes are determined by Northern blot analysis or RT-PCR as described above.

[3] = tested on: thyroid stimulating hormone (TSH); experiment: Circulating TSH in rats (cholesterol-fed, ZDF); type: in vivo
Protocol: Methods: mGPDH activity was analyzed in isolated mitochondria using 2-(4-iodophenyl)-3-(4-nitrophenyl)-5-phenyl tetrazolium chloride as the terminal electron acceptor (Gardner R S, Analytical Biochemistry 59:272 (1974)). Commercially available GPDH was used in each assay as a standard (Sigma, St. Louis, Mo.). Changes in levels of mRNA for liver and heart genes are analyzed using reverse transcriptase followed by real-time PCR analysis. The analysis is performed using an iCycler instrument (Biorad) and appropriate primers by means of standard methodology [e.g., Schwab D A et al. (2000) Life Sciences 66: 1683-94]. The amounts of mRNA are normalized to an internal control, typically, cyclophilin. Serum TSH is measured using an enzyme immunoassay (EIA) kit designed for rat TSH (Amersham Pharmacia Biotech, Arlington Heights, Ill.).
Another concern with synthetic thyromimetics is the suppression of the endogenous thyroid axis. Thyroid homeostasis is maintained by the action of thyroid releasing hormone (TRH) and thyroid stimulating hormone (TSH). […] Although this particular side effect has been noted, it has typically been treated with less concern than the cardiac safety issues. […] Therefore previous investigators have measured TSH levels when testing synthetic thyromimetics and have used a 30% decrease of TSH as the denominator in their therapeutic index calculations. […] Therefore, both compounds suppress TSH as doses lower than that required to decrease circulating cholesterol. […] However, 0.2 mg/kg/d of Compound 18 in 28 day treated ZDF rats, decreased TSH levels greater than 90%.

[4] = ZDF, rat, in vivo, po, 28 days
Protocol: Compound 18 was administered at doses up to 5 mg/kg/d. Compound cis-13-1 was administered at doses up to 50 mg/kg/d. We reasoned that the ZDF rat, as a metabolically challenged animal model, would be more sensitive to the potential adverse cardiac effects of thyromimetics than a normal, cholesterol-fed rat. At sacrifice, heart rate, and the first derivative of left ventricular pressure (LV dP/dt) were measured with a Millar catheter inserted into the left ventricle.

[5] = tested on: CYP3A (cytochrome P450-3A (CYP3A4)); experiment: Prodrug activation in rat liver microsomes; type: in vitro ADME; settings: liver microsomes from dexamethasone-treated rats; dexamethasone treated rat microsomes, formation of Compound 7
Excerpt: (§2) The purpose of these studies was to determine the kinetics of activation of prodrugs of thyromimetics in microsomal preparations. Microsomes contain the P450 enzyme that is required for the activation of many of the prodrugs prepared. The Km, Vmax, and intrinsic clearance values determined are measures of prodrug affinity for the microsomal enzymes, the rate at which the prodrug is activated, and the catalytic efficiency with which the prodrug is activated, respectively.
(§3) Methods: Activation of prodrugs by dexamethasone treated rat hepatocyte microsomes. Microsomes were isolated by standard differential centrifugation methods from dexamethasone-treated rats. The treatment is to increase cytochrome P450-3A (CYP3A4) activity. Induction of CYP3A4 was confirmed by an increase in testosterone hydroxylation.
(§4) Various concentrations of HepDirect™ Compound 7 were incubated with rat hepatocytes microsomes. Compound 7 formation was analyzed by HPLC using UV-Vis detection. Kinetic parameters (Vmax and Km) were calculated from the transformed data and the intrinsic clearance calculated from the kinetic parameters.

[6] = Prodrug activation in rat liver microsomes; type: in vitro ADME
Excerpt: as §2, §3, §4

[7] = Subacute study in cholesterol fed rats, PO: heart weight; type: in vivo; settings: PO seven days, any dose tested
Protocol: as §1

plasma cholesterol = experiment: Cholesterol lowering in hypercholesterolemic rats; type: in vivo; settings: hypercholesterolemic rats, 0.5 mg/kg/d orally
[8] = molecular target: T1, human thyroid hormone receptors TRβ1 (Homo sapiens, UniProt P10828); experiment: Receptor binding to TRβ1 (gel filtration and scintillation proximity assay, labeled T3); settings: SPA data; read-out: Ki TRβ
T1 construct: made in house; host or cells: Sf9 insect cells (baculovirus)
T1 sequence (P10828 1-461): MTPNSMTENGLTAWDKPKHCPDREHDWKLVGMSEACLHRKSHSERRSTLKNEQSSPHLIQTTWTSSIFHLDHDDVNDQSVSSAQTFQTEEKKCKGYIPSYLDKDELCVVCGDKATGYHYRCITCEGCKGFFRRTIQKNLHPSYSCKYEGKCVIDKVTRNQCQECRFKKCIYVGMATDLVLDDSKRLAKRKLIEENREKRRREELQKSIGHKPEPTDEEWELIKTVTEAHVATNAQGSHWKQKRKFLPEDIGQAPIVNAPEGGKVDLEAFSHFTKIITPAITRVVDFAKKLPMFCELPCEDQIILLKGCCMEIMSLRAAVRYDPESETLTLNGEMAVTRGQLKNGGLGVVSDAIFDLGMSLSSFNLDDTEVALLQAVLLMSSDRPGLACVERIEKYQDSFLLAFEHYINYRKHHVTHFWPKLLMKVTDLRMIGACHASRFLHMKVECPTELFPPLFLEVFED
T1 sequence (P19793 1-462 partner): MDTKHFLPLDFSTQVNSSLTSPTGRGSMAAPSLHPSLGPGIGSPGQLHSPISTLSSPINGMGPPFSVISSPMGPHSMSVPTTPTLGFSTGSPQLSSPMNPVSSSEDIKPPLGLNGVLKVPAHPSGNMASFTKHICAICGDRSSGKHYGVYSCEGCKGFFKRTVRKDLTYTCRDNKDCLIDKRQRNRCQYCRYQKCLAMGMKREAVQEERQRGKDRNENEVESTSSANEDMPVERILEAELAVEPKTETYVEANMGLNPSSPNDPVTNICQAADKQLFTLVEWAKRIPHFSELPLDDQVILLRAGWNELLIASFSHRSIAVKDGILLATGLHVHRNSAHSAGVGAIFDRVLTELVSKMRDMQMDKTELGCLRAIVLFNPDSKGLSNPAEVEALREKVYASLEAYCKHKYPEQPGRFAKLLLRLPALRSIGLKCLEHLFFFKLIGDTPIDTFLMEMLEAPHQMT

[9] = molecular target: T2, human thyroid hormone receptors TRα1 (Homo sapiens, UniProt P10827); experiment: Receptor binding to TRα1 (gel filtration and scintillation proximity assay, labeled T3); settings: SPA data; read-out: Ki TRα
T2 construct: made in house; host or cells: Sf9 insect cells (baculovirus)
T2 sequence (P10827 1-410 isoform P10827-2): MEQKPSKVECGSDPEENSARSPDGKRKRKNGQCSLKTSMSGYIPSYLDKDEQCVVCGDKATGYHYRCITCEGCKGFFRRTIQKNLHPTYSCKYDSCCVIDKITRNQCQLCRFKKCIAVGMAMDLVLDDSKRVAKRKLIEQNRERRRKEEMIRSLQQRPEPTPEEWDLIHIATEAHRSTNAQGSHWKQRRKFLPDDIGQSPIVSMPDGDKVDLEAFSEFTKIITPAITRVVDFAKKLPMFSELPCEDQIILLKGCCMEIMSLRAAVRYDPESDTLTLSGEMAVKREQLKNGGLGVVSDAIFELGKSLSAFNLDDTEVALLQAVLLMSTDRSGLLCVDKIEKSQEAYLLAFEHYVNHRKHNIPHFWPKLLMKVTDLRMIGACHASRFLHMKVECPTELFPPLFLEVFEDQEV
T2 sequence (P19793 1-462 partner): T1 sequence (P19793 1-462 partner)

| decrease of TSH levels ([3]; ZDF rats, 0.2 mg/kg/d, 28 day) | TI for LV dP/dt (increase of 25%) [4] | Km [5] [µM] | microsomal CLint ([6]; rat, liver microsomes from dexamethasone-treated rats, intrinsic clearance calculated from the kinetic parameters) [µL/min/mg] | Ki [8] [nM] | Ki [9] [nM] | Structure (SMILES) | HR, LV dP/dt, and systolic aortic pressure [1] | Heart weight and heart weight normalized to body weight [1] | therapeutic index (TI) with respect to heart rate increases (ED15 HR/ED50 cholesterol) [2] | doses that significantly decreased serum cholesterol (serum cholesterol) [mg/kg/day] | therapeutic index of TSH levels (30% decrease of TSH) ([3]; cholesterol-fed rats, treated for 7 days) | therapeutic index with respect to heart rate (ED15 HR/ED50 cholesterol) [4] | Vmax ([6]; dexamethasone treated rat microsomes, formation of Compound 7) [pmol/min/mg] | cardiac hypertrophy [7] | cholesterol lowering (plasma cholesterol) |
| --- | --- | --- | --- | --- | --- | --- | --- | --- | --- | --- | --- | --- | --- | --- | --- |
| greater than 90% | 0.15 | – | – | – | – | CC(C)c1cc(Oc2c(Cl)cc(CC(=O)O)cc2Cl)ccc1O [Compound 18, 3,5-dichloro-4-[4′-hydroxy-3′-iso-propylphenoxy]benzeneacetic acid, reference compound] | marked and statistically significant increases | significantly increased | 40 | 1 | 0.4 | 0.4 | – | – | – |
| – | – | 31 | 56 | 1980 | 2580 | Cc1cc(OC[P@@]2(=O)OCC[C@@H](c3cccc(Cl)c3)O2)cc(C)c1Cc1ccc(O)c(C(C)C)c1 [Compound 13-1-cis, Cis(S)-2-[(3,5-Dimethyl-4-(4′-hydroxy-3′-iso-propylbenzyl)phenoxy)methyl]-4-(3-Chlorophenyl)-2-oxo-2λ^5-[1,3,2]-dioxaphosphinane] | – | – | – | 0.6 to 50 | – | – | 1746 | No significant undesirable cardiac hypertrophy was observed | demonstrated a significant lowering of cholesterol |
